From US20220288052A1, “COMPOUND FOR COMBINATION TREATMENT” (priority 2019, published 2022)
Like-named read-outs stand apart in the source and are kept apart here.

Assays:
[1] = target: SERT (Homo sapiens, UniProt P31645); experiment: MDS LeadProfilingScreen, SERT; type: binding
[2] = target: NA transporter (Rattus norvegicus, UniProt Q63380); experiment: ^3H-Nisoxetine binding, rat
Excerpt: (§1) Compound (I) has been characterized as a monoamine reuptake inhibitor, based on the profile in a series of functional assays (Table 2).

[3] = test system: C57 mice; experiment: Mouse tail suspension test (mTST); type: in vivo; details: i.p. 30 min
Method: C57 males, 25-28 g, Taconic, 16/8-06. Mice acclimatized to ground floor 5 days before testing. Mice saline injected once a day twice before test day. 22° C., N=7-8.

[4] = Metabolic stability in liver microsomes, human; type: in vitro ADME
Method: (§2) The metabolic stability of compound (I) was tested in liver microsomes from all in house available species at 1 and 5 μM. One metabolite of 16 mass units higher than parent, was found in all incubations, except with human liver microsomes.

[5] = Bioavailability study in dog; type: in vivo; details: for half-life / AUC(0-inf) / Cmax / Tmax / bioavailability / Vd / clearance: plasma; for bioavailability: 2.5 mg/kg p.o. vs 0.5 mg/kg i.v.
Method: A bioavailability study was also conducted in dogs. […] The i.v. dose, which was given 7 days later, was chosen as 0.5 mg/kg in order to prevent observable CNS effects. The difference between the p.o. and the i.v. dose might overestimate the bioavailability to a certain extent. […] T½ is in the same range in the two dogs and after both p.o. and i.v. administration (1.4-1.7 h).

[6] = test system: NMRI mice; experiment: Mouse forced swim test (mFST); type: in vivo
Method: Compound (I) was tested in two of the most widely used behavioural screens for predicting antidepressant effects in the clinic: the mouse forced swim test (mFST) and mouse tail suspension test (mTST).
In order to further characterize the role played by 5-HT and DA-ergic neurotransmission in the antidepressant-like effects of compound (I), the potential involvement of 5-HT1A and D1 receptors was investigated in the mFST.

[7] = test system: Salmonella typhimurium strains TA 100 and TA 98; experiment: Ames screening test; type: cell-based; details: 1.6 to 5000 μg/plate, presence or absence of S-9 mix
Method: Compound (I) was tested for genotoxicity in the Ames screening test using Salmonella typhimurium strains TA 100 and TA 98. Compound (I) was tested at dose levels of 1.6 to 5000 μg/plate in the presence or absence of S-9 mix.

[8] = 14-day repeat-dose study in Wistar rats; type: in vivo, rat
Method: In a 14-day repeat-dose study 4 groups of 4 male and 4 female Wistar rats were treated daily with either compound (I) at doses of 5, 10 and 15 mg/kg s.c. (Groups 2, 3 and 4), or vehicle, 5% glucose s.c. (Group 1). A satellite group 25 mg/kg s.c. (group5) was conducted accordingly to increase the exposure and efficacy.

[9] = Linearity after single p.o. dose in mouse; type: in vivo; details: for AUC(0-inf) / bioavailability / half-life: female, NMRI, mouse; for AUC(0-inf) / bioavailability / half-life / Cmax / Tmax: plasma, po; for bioavailability: compared to 10 mg/kg i.v.; for half-life: read-out: T½ (converted); for Cmax / Tmax: female NMRI mouse; for Tmax: 5% Tween 80
[10] = beagle, dog, in vivo, iv
Method: Data presented are mean±s.e. mean where n=4 for all time points, excluding D2t7 where n=3, D3t7 where n=2, and D4t7 and D4t26 where no data was available. Animals received 1, 3, 10, and 30 mg/kg compound (I) as 4 intravenous infusions (starting at t0, D1t30, D2t30 and D3t30, respectively). Each dose was administered over 5 min, using an infusion pump, and the dose volume for each treatment was 2 ml/kg, with the exception of the fourth dose which was 3 ml/kg.
Data presented are mean±s.e. mean where n=4 for all time points, excluding D4t7 and D4t26 where no data was available. Animals received 1, 3, 10, and 30 mg/kg compound (I) as 4 intravenous infusions (starting at t0, D1t30, D2t30 and D3t30, respectively). Each dose was administered over 5 min, using an infusion pump, and the dose volume for each treatment was 2 ml/kg, with the exception of the fourth dose which was 3 ml/kg.

[11] = target: 5-HT transporter (Rattus norvegicus, UniProt P31652); experiment: ^3H-Citalopram binding, rat
Excerpt: as §1

[12] = Metabolic stability in liver microsomes, dog; type: in vitro ADME
Method: as §2

[13] = po, Female beagle dog, 2.5 mg/kg p.o.
[14] = po, Male beagle dog, 2.5 mg/kg p.o.
[15] = 15 mg/kg s.c. 14 days (Group 4)
[16] = 25 mg/kg s.c. 14 days (Group 5)

Chain of SERT (P31645 whole entry): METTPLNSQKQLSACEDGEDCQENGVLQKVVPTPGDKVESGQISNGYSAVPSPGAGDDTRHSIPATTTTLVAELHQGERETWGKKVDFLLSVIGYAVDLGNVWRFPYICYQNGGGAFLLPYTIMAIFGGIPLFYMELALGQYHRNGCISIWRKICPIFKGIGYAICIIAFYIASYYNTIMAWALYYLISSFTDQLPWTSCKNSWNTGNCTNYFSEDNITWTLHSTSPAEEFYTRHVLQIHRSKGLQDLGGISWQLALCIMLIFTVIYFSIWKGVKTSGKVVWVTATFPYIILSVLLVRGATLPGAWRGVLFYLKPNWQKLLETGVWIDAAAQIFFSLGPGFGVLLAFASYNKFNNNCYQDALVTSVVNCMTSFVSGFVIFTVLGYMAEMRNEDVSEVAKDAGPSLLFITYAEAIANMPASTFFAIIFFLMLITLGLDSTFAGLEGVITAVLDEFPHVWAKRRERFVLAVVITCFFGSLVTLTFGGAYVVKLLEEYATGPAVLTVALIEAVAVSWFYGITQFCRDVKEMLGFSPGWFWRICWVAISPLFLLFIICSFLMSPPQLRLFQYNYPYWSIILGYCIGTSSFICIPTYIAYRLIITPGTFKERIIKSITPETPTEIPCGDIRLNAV
Chain of NA transporter (Q63380 1-617): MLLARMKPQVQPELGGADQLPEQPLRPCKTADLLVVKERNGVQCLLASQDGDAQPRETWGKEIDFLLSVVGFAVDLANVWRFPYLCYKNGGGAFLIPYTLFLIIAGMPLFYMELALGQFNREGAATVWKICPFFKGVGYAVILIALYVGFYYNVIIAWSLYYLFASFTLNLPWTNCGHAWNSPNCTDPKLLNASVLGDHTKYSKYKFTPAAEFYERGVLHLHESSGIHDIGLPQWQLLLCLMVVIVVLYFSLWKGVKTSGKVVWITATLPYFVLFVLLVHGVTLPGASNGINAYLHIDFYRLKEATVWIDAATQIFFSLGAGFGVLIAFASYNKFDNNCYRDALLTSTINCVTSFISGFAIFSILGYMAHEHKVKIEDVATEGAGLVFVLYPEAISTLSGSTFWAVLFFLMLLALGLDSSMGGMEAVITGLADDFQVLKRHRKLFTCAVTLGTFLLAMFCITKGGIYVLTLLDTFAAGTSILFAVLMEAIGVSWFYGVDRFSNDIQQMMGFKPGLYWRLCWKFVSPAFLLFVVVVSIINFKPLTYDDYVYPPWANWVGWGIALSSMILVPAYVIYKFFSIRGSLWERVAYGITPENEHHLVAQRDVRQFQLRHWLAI
Chain of 5-HT transporter (P31652 whole entry): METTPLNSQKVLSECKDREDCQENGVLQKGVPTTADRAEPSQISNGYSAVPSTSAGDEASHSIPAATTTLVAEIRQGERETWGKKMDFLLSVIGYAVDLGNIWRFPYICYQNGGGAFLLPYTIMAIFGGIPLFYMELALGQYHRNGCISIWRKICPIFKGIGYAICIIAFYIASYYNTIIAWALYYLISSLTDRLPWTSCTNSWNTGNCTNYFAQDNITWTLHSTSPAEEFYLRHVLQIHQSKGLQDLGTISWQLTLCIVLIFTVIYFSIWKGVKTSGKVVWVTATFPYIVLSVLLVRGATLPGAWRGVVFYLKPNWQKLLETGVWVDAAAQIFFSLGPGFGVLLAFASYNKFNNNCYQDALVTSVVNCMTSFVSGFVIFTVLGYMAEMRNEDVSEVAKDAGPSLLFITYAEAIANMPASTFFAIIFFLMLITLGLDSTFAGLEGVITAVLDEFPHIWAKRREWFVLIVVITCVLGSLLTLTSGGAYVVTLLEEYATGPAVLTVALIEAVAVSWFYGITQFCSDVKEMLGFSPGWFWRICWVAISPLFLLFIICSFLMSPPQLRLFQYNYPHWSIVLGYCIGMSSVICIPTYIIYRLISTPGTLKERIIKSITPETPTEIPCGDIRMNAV

## O=c1ccc2ccc(O[C@@H]3C[C@H]4CC[C@@H](C3)N4)cc2o1 [Compound (I), exo-7-(8-aza-bicyclo[3.2.1]oct-3-yloxy)-chromen-2-one]
[1]
  Ki: 0.37 nM
[1]; SERT, Human, 10 μM
  inhibition at 10 µM: 103%
[2]
  Ki: 1300 nM
[3]
  MED: <5 mg/kg
[4]
  Metabolite (mass units higher than parent): None
  Stability at 1 μM: 94%
  Stability at 5 μM: 93%
[5]; both sexes, beagle, dog, other: p.o. and i.v., the two dogs, after both p.o. and i.v. administration, read-out: T½
  half-life: 1.4 to 1.7 h
[5]; dogs, after 2.5 mg/kg p.o.
  CNS effects: some CNS effects were observed
[5]; iv, Female beagle dog, 0.5 mg/kg i.v., read-out: AUC(0-∞) i.v.
  AUC(0-inf): 194 ng·h/mL
[5]; iv, Female beagle dog, 0.5 mg/kg i.v., read-out: T½ i.v. (converted)
  half-life: 1.4 h
[5]; iv, Male beagle dog, 0.5 mg/kg i.v., read-out: AUC(0-∞) i.v.
  AUC(0-inf): 343 ng·h/mL
[5]; iv, Male beagle dog, 0.5 mg/kg i.v., read-out: T½ i.v. (converted)
  half-life: 1.6 h
[5]; [13]
  Cmax: 339 ng/mL
  Tmax: 0.5 h
[5]; po, Female beagle dog
  bioavailability: 114%
[5]; po, Female beagle dog, 2.5 mg/kg p.o., read-out: AUC(0-∞) p.o.
  AUC(0-inf): 1110 ng·h/mL
[5]; po, Female beagle dog, 2.5 mg/kg p.o., read-out: T½ p.o. (converted)
  half-life: 1.6 h
[5]; [14]
  Cmax: 418 ng/mL
  Tmax: 0.5 h
[5]; po, Male beagle dog
  bioavailability: 84%
[5]; po, Male beagle dog, 2.5 mg/kg p.o., read-out: AUC(0-∞) p.o.
  AUC(0-inf): 1440 ng·h/mL
[5]; po, Male beagle dog, 2.5 mg/kg p.o., read-out: T½ p.o. (converted)
  half-life: 1.7 h
[5]; Female beagle dog
  Vd: 5 L/kg
  clearance: 43.3 mL/min/kg
[5]; Male beagle dog
  Vd: 3.4 L/kg
  clearance: 25 mL/min/kg
[6]; mFST (NMRI), p.o. 60 min
  MED: 1 mg/kg
[6]; mFST, 0.03, 0.1, 0.3 mg/kg p.o. −60 min + WAY100635 0.1 mg/kg s.c. −60 min
  MED: 0.1 mg/kg
[6]; mFST, 1, 3, 10 mg/kg p.o. −60 min + SCH23390 0.00375 mg/kg s.c. −60 min
  MED: 10 mg/kg
[6]; mFST, 1, 3, 10 mg/kg p.o. −60 min + WAY100635 1 mg/kg s.c. −60 min
  MED: 1 mg/kg
[6]; mFST, with low dose of WAY100635
  Leftward shift in dose-response: 10 fold
[6]; mFST, with non-sedative dose of SCH23390
  Rightward shift in dose-response: 10 fold
[7]
  Mutagenic activity (genotoxicity): did not show any evidence of mutagenic activity
[8]; [15]
  Activity: increased activity in both males and females
  Body weight gain: No changes in body weight gain were observed in the female rats, but a tendency to increased bodyweight in the group 4 males
  Relative liver weights: reduced in group 4 females and increased in group 4 males
[8]; [16]
  Activity: increased activity in both male and female
  Body weight: minimal decreased body weight
  Liver weight: No changes in liver weight
[8]; s.c. 14 days
  Macroscopic findings at termination: no treatment-related macroscopic findings
[9]; 30 mg/kg p.o.
  AUC(0-inf): 14300 ng·h/mL
  bioavailability: 206%
  half-life: 5.1 h
  Cmax: 3080 ng/mL
  Tmax: 0.5 h
[9]; 60 mg/kg p.o.
  AUC(0-inf): 34700 ng·h/mL
  bioavailability: 250%
  half-life: 6.1 h
  Cmax: 4150 ng/mL
  Tmax: 0.5 h
[9]; mice, relatively high doses p.o., single dose
  Linearity of kinetics (AUC versus dose): tendency to sub-linear kinetics
[10]; 1 mg/kg
  Average conc. of compound (I) at 5 min (max), total plasma: 631 ng/mL
[10]; 3 mg/kg
  Average conc. of compound (I) at 5 min (max), total plasma: 2120 ng/mL
[10]; 10 mg/kg
  Average conc. of compound (I) at 5 min (max), total plasma: 6560 ng/mL
[10]; 30 mg/kg
  Average conc. of compound (I) at 5 min (max), total plasma: 15000 ng/mL
[11]
  Ki: 0.28 nM
[12]
  Stability at 1 μM: 100%
  Stability at 5 μM: 90%
